Measured values from US20140056834A1, “COSMETIC COMPOSITION COMPRISING CHRYSOPHANOL AS ACTIVE INGREDIENT FOR SKIN WHITENING” (PUKYONG NATIONAL UNIVERSITY INDUSTRY-UNIVERSITY C, priority 2012, published 2014).

What was measured:
[1] = test system: B16F1 cells; assay: Determination of cytotoxicity by MTT method; assay type: cell-based, mouse; conditions: 10 and 50 μM, 24 h incubation
Experimental: The mouse melanoma B16F1 cells were acquired from the American Type Culture Collection (ATCC, Manassas, Va.) and were cultured in Dulbecco's modification of eagle's medium (DMEM, GIBCO, New York, USA) containing 100 μg/ml penicillin-streptomycin, […] fetal bovine serum (FBS) and maintained at 37° C., 5% CO2. Cytotoxicity levels of the isolated chrysophanol compound from Microsporum sp. on B16F1 cells were measured using MTT (3-(4,5-dimethyl[…])-2,5-diphenyltetrazolium bromide) method. Briefly, B16F1 cells were cultured in 96-well plates at a density of 5×10^3 cells/well. After 24 h, cells were treated with different concentrations (10, 50, 100 μM) of chrysophanol compound. After the next 24 h of incubation, cells were washed two times with PBS and 100 μl of MTT solution (1 mg/ml) was added to each well. After next 4 h of incubation, MTT solution in each well was removed and then 100 μl of dimethyl-sulfoxide (DMSO) were added to solubilize the formazan salt. The optical density was measured at 540 nm by using UV microplate reader (Tecan Austria GmbH, Groedig, Austria). Relative cell viability was calculated compared to the non-treated blank group.

[2] = test system: mushroom tyrosinase; assay: Mushroom tyrosinase assay (tyrosinase inhibitory activity); assay type: biochemical; conditions: L-tyrosine substrate, different concentrations, 30 min at 37° C.
Experimental: The inhibitory effect on tyrosinase was measured using the spectrophotometric method, based on the hydroxylation of […] in mushroom tyrosinase assay.
A total of 10 μl of each chrysophanol with different concentrations and 20 μl of mushroom tyrosinase (1000 units/ml) in 50 mM phosphate buffer (pH 6.5) were added to 170 μl of an assay mixture containing a ratio of 10:10:9 of 1 mM L-tyrosine solution, 50 mM phosphate buffer (pH 6.5), and distilled water in a 96-well microplate. After 30 min of incubation at 37° C., the absorbance of the mixture was determined at 490 nm using a microplate reader (Tecan Austria GmbH, Austria).

[3] = test system: B16F1 cells; assay: Melanin content in α-MSH-stimulated B16F1 cells; assay type: cell-based, mouse; conditions: α-MSH 100 nM, 72 h
Experimental: The melanin content was determined in accordance a procedure described previously (Hosoi et al., 1985) with slight modifications.
Briefly, B16F1 cells were seeded at a density of 2×10^4 cells per well in 24-well culture plates and then incubated for 24 h. Then, cells were treated with various concentrations ([…]) of chrysophanol. After 1 h, α-MSH (100 nM) was added and incubated for 72 h. Then, cells were washed twice with PBS and dissolved in 1 N NaOH by 30 min of boiling at 60° C. The cell lysates were centrifuged for 5 min at 5000 g and absorbance of the supernatant was measured at 405 nm.

[4] = test system: tyrosinase protein in mouse melanoma B16F1 cells; assay: Tyrosinase protein expression by western blot analysis; assay type: cell-based; conditions: α-MSH
Experimental: For the western blot analysis, B16F1 cells were treated with different concentrations of chrysophanol compound, added with α-MSH, incubated for a predetermined time, and then the cells were lysed with RIPA buffer (Sigma-Aldrich Corp., St. Louis, USA) and centrifuged. After the centrifugation, the same amount (15 μg) of protein in cell lysate supernatants were analyzed on 10% SDS-PAGE and proteins were blotted on an immuno-blot nitro-cellulose membrane and blocked with 5% BSA in TBS containing 0.1% Tween 20 (TBS-T) for at least 1 h and hybridized with the primary monoclonal antibodies (Santa Cruz Biotechnology Inc., CA, USA). All the primary monoclonal antibodies were diluted with TBS-T (1:1000). The protein bindings were detected using the secondary antibody conjugated to horseradish peroxidase and enhanced using chemiluminiscence ECL assay kit (Amersham Pharmacia Biosciences, England, UK) according to the manufacturer's instructions and imaged on a LAS-3000® Luminescent image analyzer (Fujifilm, Life Science, Tokyo, Japan). T

Cc1cc(O)c2c(c1)C(=O)c1cccc(O)c1C2=O [chrysophanol]
cytotoxicity (relative cell viability, MTT) [1]: no cytotoxicity
tyrosinase inhibitory activity [2]: tyrosinase inhibitory activity was observed by chrysophanol in a dose-dependent manner
melanin content compared with positive control kojic acid ([3]; B16F1 cells, 50 μM): almost the same as that of kojic acid
melanin content ([3]; B16F1 cells, 5, 10, 50 μm chrysophanol): decrease in melanin content in B16F1 cells by the treatment of chrysphanol in a dose-dependent manner
tyrosinase protein expression ([4]; 20 μM): significantly inhibited expression of tyrosinase protein
tyrosinase protein expression ([4]; different concentrations): dose-dependent inhibition of tyrosinase protein expression
